Tests used:
[1] = tested on: Human immunodeficiency virus 1; test: Antiviral activity against HIV-1 NL4-3 infected in human MT4 cells assessed as inhibition of viral replication by Nano-Glo luciferase assay; format: functional, organism-based; conditions: Human immunodeficiency virus 1, NL4-3, MT4
[2] = Cytotoxicity against human MT4 cells assessed as reduction in cell viability by CellTiter-Glo luminescence analysis; format: toxicity, cell-based
[3] = Selectivity index, ratio of CC50 for human MT4 cells to IC50 for antiviral activity against HIV-1 NL4-3 infected in human MT4 cells; format: toxicity, cell-based; conditions: read-out: Ratio CC50/IC50

CCCCCCCC(=O)O[C@@]12C[C@@H](C)[C@@]3(O)[C@H]([C@@H]1C2(C)C)[C@@H](OO)C(CO)=C[C@]1(O)C(=O)C(C)=C[C@@H]31
IC50 [1]: > 41 nM | CC50 [2]: > 41 nM

CCCCCCCC(=O)O[C@@]12[C@H](OC(=O)c3ccccc3)[C@@H](C)[C@@]3(O)[C@@H](C(=O)C(CO)=C[C@]4(O)C(=O)C(C)=C[C@@H]34)[C@@H]1C2(C)C
CC50 [2]: > 41 nM

CCCCCCCC(=O)O[C@@]12[C@H](OC(=O)c3ccccc3)[C@@H](C)[C@@]3(O)[C@@H](C=C(CO)C[C@]4(O)C(=O)C(C)=C[C@@H]34)[C@@H]1C2(C)C
IC50 [1]: 0.18 nM | CC50 [2]: > 41 nM

CCCCCCCC(=O)O[C@@]12[C@H](OC(=O)c3ccccc3)[C@@H](C)[C@@]3(O)[C@H]([C@@H]1C2(C)C)[C@@H](OO)C(CO)=C[C@]1(O)C(=O)C(C)=C[C@@H]31
selectivity ratio [3]: < 5

C=C(C)[C@]12C[C@@H](COC(=O)c3ccccc3)[C@@]34OC5(O[C@@H]1[C@@H]3[C@@H]1O[C@]1(CO)[C@@H](O)[C@@]1(O)[C@H]4[C@H]([C@H](C)[C@@H]1OC(=O)c1ccccc1)[C@H](C)CCCCCC[C@H]5O)O2
IC50 [1]: 0.07 nM | CC50 [2]: > 5 nM

CCCCCCCC(=O)O[C@@]12[C@H](OC(=O)c3ccccc3)[C@@H](C)[C@]3(O)[C@@H]4C=C(C)C(=O)[C@@]4(O)[C@H](O)C(CO)=C[C@H]3[C@@H]1C2(C)C
CC50 [2]: > 41 nM

CCCCCCCC(=O)O[C@@]12C[C@@H](C)[C@@]3(O)[C@@H](C(=O)C(CO)=C[C@]4(O)C(=O)C(C)=C[C@@H]34)[C@@H]1C2(C)C
IC50 [1]: > 41 nM | CC50 [2]: > 41 nM

CCCCCCCC(=O)O[C@@]12[C@H](OC(=O)c3ccccc3)[C@@H](C)[C@@]3(O)[C@H]([C@@H]1C2(C)C)[C@@H](O)C(CO)=C[C@]1(O)C(=O)C(C)=C[C@@H]31
IC50 [1]: > 41 nM | CC50 [2]: > 41 nM

CCCCCCCC(=O)O[C@@]12[C@H](OC(=O)c3ccccc3)[C@@H](C)[C@@]3(O)C(=C[C@](O)(CO)C[C@]4(O)C(=O)C(C)=C[C@@H]34)[C@@H]1C2(C)C
IC50 [1]: > 41 nM | CC50 [2]: > 41 nM

From ChEMBL document CHEMBL5120745, “LC-MS Identification, Isolation, and Structural Elucidation of Anti-HIV Tigliane Diterpenoids from Wikstroemia lamatsoensis” (J Nat Prod, 2021)
